# Measurements published in patent publication US20110039873A1, “SUBSTITUTED PYRAZOLO[1,5-a] PYRIDINE COMPOUNDS HAVING MULTI-TARGET ACTIVITY” (priority 2009, published 2011).
# Read-outs that look alike come from different tables or passages of the source.
# Columns and labels:
# [1] = target: T1, recombinant human phosphodiesterase 10A1 enzyme (Homo sapiens, UniProt Q9Y233); test: PDE10 inhibition assay (PDELight); assay type: biochemical; conditions: for IC50: 1 uM cAMP, read-out: PDE 10 Inhibition (IC50 in μM); for PDE-10 inhibition (in words): Table 2
# T1 construct: purchased BPS Biosciences; host or cells: Baculovirus infected Sf9 cells
# [2] = test system: Mouse BV-2 microglial cells; test: BV-2 glial cell assay (TNF-α and MCP-1 by Luminex); assay type: cell-based; conditions: for EC50: Mus musculus, BV-2, LPS and IFN-γ activated, 20 hours; for inhibiting glial cell activation (TNF-α and/or MCP-1): Table 3
# Procedure: Mouse BV-2 microglial cells were seeded on 96-well plates at a concentration of 3×10^4 cells/well. Cells were activated with 100 ng/mL LPS and IFN-γ (100 ng/mL) in the presence or absence of test compounds (0-30 uM). Following incubation for 20 hours, cells were spun down and supernatant collected. The supernatant was analyzed via Luminex for the presence of TNF-α and MCP-1.
# [3] = target: T2, recombinant full length human JNK3 enzyme (Homo sapiens, UniProt P53779); test: JNK 3 inhibition assay (ATP depletion, luciferase); assay type: biochemical; conditions: for IC50: 10 uM ATP, ATF2 substrate; for JNK-3 inhibition (in words): see Table 2
# T2 construct: recombinant full length human JNK2 or JNK3 enzyme; purchased Upstate; host or cells: Sf21 cells
# Procedure: In a 96-well plate, recombinant full length human JNK2 or JNK3 enzyme (40 ng) expressed in Sf21 cells (Upstate) was incubated with the substrate ATF2 (3 uM) for 1 hour in the presence of 10 uM ATP. […] The ATP levels were quantified using luciferase with luminescence read on a Victor Light 1420 luminometer. IC50 calculations were plotted using a nonlinear regression curve fit.
# [4] = test system: phosphorylated c-Jun (serine-73); test: Phosphorylated c-JUN (A-beta), E18 rat neuronal cells; assay type: cell-based; conditions: Amyloid Beta peptide 30 uM, 3 hours, read-out: p-cJun Abeta E18 (EC50 in μM)
# Procedure: (§1) In 96-well plates either human SH-SY5Y neuroblastoma cells at 2.5×10^4 cells/well or E18 rat neuronal cells at 1.5×10^4 cells/well were seeded. To each well the following was added, Amyloid Beta peptide 1-25 (source) at a concentration of 30 uM, retinoic acid (10 uM) and test compounds (0-30 uM) and incubated for 3 hours. Supernatant was discarded and cells were fixed with 4% paraformaldehyde (100 ul/well) for 20 minutes. FACE cell based ELISA assay (Active Motif) was performed specific for quantifying phosphorlyated c-Jun (serine-73).
# [5] = target: T3, recombinant full length human JNK2 enzyme (Homo sapiens, UniProt P45984); test: JNK 2 inhibition assay (ATP depletion, luciferase); assay type: biochemical
# T3 construct: recombinant full length human JNK2 or JNK3 enzyme; purchased Upstate; host or cells: Sf21 cells
# Procedure: In a 96-well plate, recombinant full length human JNK2 or JNK3 enzyme (40 ng) expressed in Sf21 cells (Upstate) was incubated with the substrate ATF2 (3 uM) for 1 hour in the presence of 10 uM ATP. […] IC50 calculations were plotted using a nonlinear regression curve fit.
# [6] = test system: phosphorylated c-Jun (serine-73); test: Phosphorylated c-JUN (A-beta), SH-SY5Y; assay type: cell-based; conditions: Homo sapiens, Amyloid Beta peptide 30 uM, 3 hours, read-out: p-cJun Abeta SH-SY5Y (EC50 in μM)
# Procedure: In 96-well plates either human SH-SY5Y neuroblastoma cells at 2.5×10^4 cells/well or E18 rat neuronal cells at 1.5×10^4 cells/well were seeded. […] Supernatant was discarded and cells were fixed with 4% paraformaldehyde (100 ul/well) for 20 minutes. FACE cell based ELISA assay (Active Motif) was performed specific for quantifying phosphorlyated c-Jun (serine-73).
# [7] = test system: phosphorylated c-Jun (serine-73); test: Phosphorylated c-JUN (6-OHDA), SH-SY5Y; assay type: cell-based; conditions: Homo sapiens, 50 uM 6-hydroxydopamine, 1.5 hours, read-out: p-cJun 6-OHDA SH-SY5Y (EC50 in μM)
# Procedure: Human SH-SY5Y neuroblastoma cells were cultured in 96-well plates with 2.5×10^4 cells/well and incubated for 48 hours. 6-hydroxydopamine was added at a concentration of 50 uM in the presence or absence of test compounds (0-30 uM) and incubated for 1.5 hours. Supernatant was discarded and cells were fixed with 4% paraformaldehyde (100 ul/well) for 20 minutes. FACE cell based ELISA assay (Active Motif) was performed specific for quantifying phosphorlyated c-Jun (serine-73).
# [8] = target: T4, catalytic domain of phosphodiesterase 4B enzyme cloned from human brain (Homo sapiens, UniProt Q07343); test: PDE4 inhibition assay (PDELight); assay type: biochemical; conditions: for IC50: 5 uM cAMP, read-out: PDE 4 Inhibition (IC50 in μM)
# T4 construct: the catalytic domain of phosphodiesterase 4B enzyme; purchased Scottish Biomedical
# Method in brief: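 Human PDE4B catalytic domain (40 mU/well) incubated with 5 uM cAMP. AMP formed was converted to ATP and measured by luciferase luminescence (PDELight). IC50 derived by nonlinear regression curve fit.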
# [9] = test system: rat chronic constriction injury (CCI) model of neuropathic pain; test: Rat chronic constriction injury (CCI) model of neuropathic pain; assay type: in vivo
# [10] = Oral pharmacokinetic evaluation; assay type: in vivo, rat; conditions: Sprague-Dawley rats; for AUC(0-t) / Cmax / half-life: male, rat, plasma; for AUC(0-t): read-out: Oral PK AUClast; for Cmax: read-out: Oral PK Cmax; for half-life: Sprague-Dawley, po, 15 mg/kg
# Procedure: Three male Sprague-Dawley rats were dosed orally via gavage with 15 mg/kg of test compound. Serial blood samples were collected from the jugular vein at 5, 15, and 30 min, 1, 3, and 6 hours post dosing. Samples were processed for plasma via centrifugation and plasma samples were stored frozen prior to analysis via a sensitive and specific HPLC/MS/MS method. PK parameters were calculated using WinNonLin (Pharsight).
# [11] = test system: at least one of JNK 3 or JNK 2 and at least one of PDE 10 or PDE 4; test: Dual inhibition (phosphodiesterase and JNK); assay type: biochemical, human; conditions: IC50 JNK 3 or JNK 2 less than about 5.00 μM and PDE 10 or PDE 4 less than about 20.0 or 30.0 μM
# Method in brief: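 JNK2/JNK3: full-length human enzyme with 3 uM ATF2 and 10 uM ATP for 1 h, ATP depletion by luciferase luminescence. PDE4B catalytic domain with 5 uM cAMP, or PDE10A1 with 1 uM cAMP, 1 h; AMP converted to ATP for luminescence. Compounds 0–30 uM; IC50 by nonlinear regression.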
# [12] = test system: JNK kinase; test: Amyloid beta-induced phosphorylation of JNK kinase (FIG. 2); assay type: cell-based; conditions: neuronal cells stimulated with Amyloid Beta, ELISA
# Procedure: as §1
# Neuronal cells were stimulated with Amyloid Beta, the Alzheimer's related peptide, resulting in phosphorylation of JNK kinase as measured by ELISA.
# [13] = Water solubility; assay type: physicochemical; conditions: defined as at least 10 milligrams per milliliter in water at 25° C. and pH 7.0
# Procedure: By “water soluble” is meant a compound that is soluble in water to an extent of at least 10 milligrams per milliliter in water at 25° C. and a pH 7.0.
# [14] = read-out: MCP-1 BV-2 (EC50 in μM)
# [15] = read-out: TNF-a BV-2 (EC50 in μM)
# [16] = 10 uM ATP, ATF2 substrate, read-out: JNK 2 Inhibition (IC50 in μM)
# [17] = read-out: IC50 value based upon a JNK 2 inhibition assay (range given)
# [18] = dose not given, 50% paw withdrawal threshold, von Frey
# T4 sequence (Q07343 330-659 limits assumed): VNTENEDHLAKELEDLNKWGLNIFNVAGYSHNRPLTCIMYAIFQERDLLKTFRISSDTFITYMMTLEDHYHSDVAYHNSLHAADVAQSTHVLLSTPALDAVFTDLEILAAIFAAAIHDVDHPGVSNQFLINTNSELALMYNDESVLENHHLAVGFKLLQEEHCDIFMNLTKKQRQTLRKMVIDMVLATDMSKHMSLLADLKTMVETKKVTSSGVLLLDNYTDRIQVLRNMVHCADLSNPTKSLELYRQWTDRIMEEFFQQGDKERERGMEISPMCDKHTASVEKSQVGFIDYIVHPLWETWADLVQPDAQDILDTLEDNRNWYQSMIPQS
# T3 sequence (P45984 whole entry): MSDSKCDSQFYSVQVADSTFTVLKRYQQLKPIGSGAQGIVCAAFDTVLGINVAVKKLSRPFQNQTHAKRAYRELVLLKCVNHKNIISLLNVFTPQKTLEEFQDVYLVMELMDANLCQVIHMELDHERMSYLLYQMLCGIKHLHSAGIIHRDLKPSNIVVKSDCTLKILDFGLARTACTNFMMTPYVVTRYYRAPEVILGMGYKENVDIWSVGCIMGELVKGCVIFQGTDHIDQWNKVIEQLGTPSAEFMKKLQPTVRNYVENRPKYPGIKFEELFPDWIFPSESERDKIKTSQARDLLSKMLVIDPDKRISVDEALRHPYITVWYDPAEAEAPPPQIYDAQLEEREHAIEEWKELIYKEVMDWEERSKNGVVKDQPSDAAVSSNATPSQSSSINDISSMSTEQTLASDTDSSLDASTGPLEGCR
# T2 sequence (P53779 whole entry): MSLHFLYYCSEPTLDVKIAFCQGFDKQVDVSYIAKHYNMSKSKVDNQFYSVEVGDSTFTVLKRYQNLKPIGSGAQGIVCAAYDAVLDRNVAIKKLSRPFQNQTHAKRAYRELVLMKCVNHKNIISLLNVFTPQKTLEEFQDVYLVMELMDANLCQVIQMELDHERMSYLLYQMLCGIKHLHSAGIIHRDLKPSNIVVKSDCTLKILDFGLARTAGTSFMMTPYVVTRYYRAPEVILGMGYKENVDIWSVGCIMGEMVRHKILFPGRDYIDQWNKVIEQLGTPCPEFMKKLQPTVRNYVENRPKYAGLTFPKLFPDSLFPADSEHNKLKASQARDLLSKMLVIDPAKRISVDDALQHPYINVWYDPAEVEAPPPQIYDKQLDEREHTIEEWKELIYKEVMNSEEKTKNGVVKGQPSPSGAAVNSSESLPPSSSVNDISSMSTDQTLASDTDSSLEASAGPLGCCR
# T1 sequence (Q9Y233 1-779 isoform Q9Y233-1): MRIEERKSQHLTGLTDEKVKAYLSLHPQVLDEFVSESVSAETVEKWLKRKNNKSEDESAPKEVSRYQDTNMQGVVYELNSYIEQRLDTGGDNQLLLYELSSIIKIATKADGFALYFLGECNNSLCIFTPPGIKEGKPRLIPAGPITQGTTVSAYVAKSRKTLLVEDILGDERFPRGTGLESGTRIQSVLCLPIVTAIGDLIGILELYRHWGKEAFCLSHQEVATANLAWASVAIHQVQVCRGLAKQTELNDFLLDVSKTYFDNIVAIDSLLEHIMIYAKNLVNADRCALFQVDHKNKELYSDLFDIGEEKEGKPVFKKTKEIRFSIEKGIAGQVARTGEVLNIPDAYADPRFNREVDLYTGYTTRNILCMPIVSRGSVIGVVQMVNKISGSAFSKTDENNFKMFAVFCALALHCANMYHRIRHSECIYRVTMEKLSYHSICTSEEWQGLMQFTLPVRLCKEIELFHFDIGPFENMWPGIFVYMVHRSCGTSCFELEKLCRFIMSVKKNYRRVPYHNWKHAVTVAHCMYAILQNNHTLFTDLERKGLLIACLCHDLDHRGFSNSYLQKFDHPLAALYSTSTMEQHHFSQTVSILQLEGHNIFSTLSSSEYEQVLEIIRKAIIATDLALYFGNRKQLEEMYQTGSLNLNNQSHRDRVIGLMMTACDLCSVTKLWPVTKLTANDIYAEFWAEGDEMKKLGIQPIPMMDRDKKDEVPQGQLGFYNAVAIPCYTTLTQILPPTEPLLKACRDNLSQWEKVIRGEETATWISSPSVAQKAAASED
SMILES,IC50 [1] [µM],"EC50 [2, 14] [µM]","EC50 [2, 15] [µM]",IC50 [3] [µM],EC50 [4] [µM],"IC50 [5, 16] [µM]",EC50 [6] [µM],EC50 [7] [µM],PDE-10 inhibition (in words) [1],"IC50 [5, 17] [µM]",PDE-4 inhibition (in words) [8],IC50 [8] [µM],"IP CCI efficacy (Change in grams) [9, 18] [grams]",AUC(0-t) ([10]; 15 mg/kg oral gavage) [ng·h/mL],Cmax ([10]; 15 mg/kg oral gavage) [ng/mL],dual inhibition (phosphodiesterase and JNK) [11],inhibiting glial cell activation (TNF-α and/or MCP-1) [2],JNK-3 inhibition (in words) [3],also measured
"CC(C)C(=O)c1c(C(C)C)nn2ccccc12 [AV411, 1-(2-isopropylpyrazolo[1,5-a]pyridin-3-yl)-2-methylpropan-1-one, reference compound]",6.3,42,2.7,> 100,> 30,> 100,3.8,> 30,,,,,,,,,,,
"CCCNc1nccc(-c2c(C(C)C)nn3ccccc23)n1 [AV1153, 4-(2-isopropylpyrazolo[1,5-a]pyridin-3-yl)-N-propylpyrimidin-2-amine]",8.9,,,4.1,3.6,,> 30,> 30,particularly effective,0.01 to 2,particularly effective,11.5,1.85,32,13,effective dual inhibitors,,,
"CC(C)c1nn2ccccc2c1-c1ccnc(NC2CCCC2)n1 [AV1154, N-cyclopentyl-4-(2-isopropylpyrazolo[1,5-a]pyridin-3-yl)pyrimidin-2-amine]",3,,,6,13,,> 10,3.4,particularly effective,,particularly effective,7.1,0,,,effective dual inhibitors,,,
"CCCNc1nccc(-c2cnn3ccccc23)n1 [AV1166, N-propyl-4-(pyrazolo[1,5-a]pyridin-3-yl)pyrimidin-2-amine]",38.2,1.1,0.9,0.4,37,1.3,11,1.4,particularly effective,0.01 to 2,,16.5,,,,effective dual inhibitors,Particularly effective,particularly effective,
"Cc1cccc2c(-c3ccnc(NC4CCCC4)n3)cnn12 [AV1184, N-cyclopentyl-4-(7-methylpyrazolo[1,5-a]pyridin-3-yl)pyrimidin-2-amine]",32,0.9,0.3,0.4,,,8.3,0.7,,,,15.5,,< 10,< 5,effective dual inhibitors,Particularly effective,particularly effective,inhibition of amyloid beta-induced phosphorylation of JNK kinase [12]: capable of inhibiting phosphorylation of JNK kinase in a dose-dependent manner
"c1ccn2nc(C3CC3)c(-c3ccnc(NC4CC4)n3)c2c1 [AV1200, N-cyclopropyl-4-(2-cyclopropylpyrazolo[1,5-a]pyridin-3-yl)pyrimidin-2-amine]",7.7,0.3,1,1.9,,1.6,,,particularly effective,0.01 to 2,particularly effective,2.7,,1700,420,effective dual inhibitors,Particularly effective,particularly effective,"IP CCI efficacy (Change in grams) ([9]; 10 mg/kg): 0 (10 mg/kg); grams; IP CCI efficacy (Change in grams) ([9]; 20 mg/kg): 1.8 (20 mg/kg) grams; PO CCI efficacy (Change in grams) ([9]; 30 mg/kg): 0 (30 mg/kg); grams; PO CCI efficacy (Change in grams) ([9]; 60 mg/kg): 1.25 (60 mg/kg) grams; half life following oral dosing (in words) ([10]; oral): particularly prolonged half lives; half-life ([10]; 15 mg/kg oral gavage, read-out: Oral PK T½ (converted)): 4.7 h; half-life ([10]; oral, read-out: half life following oral dosing): > 3 h; water soluble [13]: water soluble"
"Oc1c2ccccc2c2c3c(cccc13)N=N2 [SP600125, reference compound]",,,,0.2,7.6,,,0.6,,,,,0.5,,,,,,
